Legend:
[1] = tested on: DIO (Diet Induced-Obesity) mice; experiment: Blood metabolic disease marker levels in diet-induced obesity (DIO) mice; type: in vivo, C57BL/6 male mice
Description: Seven-week-old C57BL/6 male mice (obtained from Coretec Inc.) were bred in an animal facility where breeding conditions of temperature (20±1° C.), humidity (50±10%), light/dark cycle (12 hours), light intensity (150 to 300 Lux), and ventilation (10 to 20 times/hr) were maintained. Solid feed (obtained from Folas International Inc.) was freely supplied to the mice, and city water was subjected to steam sterilization and then was freely fed to the mice as drinking water. After acclimation for one week, 60% Kcal solid feed (obtained from Research Diet Inc.) was supplied to the mice, and the Lysimachiae Foenum-Graeci Herba extract was orally administered to the mice for 42 days in an amount of 30, 100, and 300 mg/kg/day. Sibutramine was administered to a positive control group in an amount of 10 mg/kg/day, and 0.5% MC (methyl cellulose) was administered to a negative control group in the same amount. The mice to which the substances were administered for six weeks were fasted for one day, and then were killed using CO2 gas. Blood gathered from the mouse abdominal vena cava was put into EDTA tubes and stored in ice, and then plasma obtained by centrifugation at 3000 rpm for 10 minutes was analyzed using a biochemical auto analyzer (AU400, Olympus, Japan). Also, organs extracted from the mice were immediately frozen by putting them into liquid nitrogen, were stored in a low-temperature refrigerator (−70° C.), and were histologically analyzed.
The contents of triglycerides and cholesterol in the extracted liver tissues were also measured, the results of which are given in FIG. 2.

[2] = tested on: ICR male mice given corn oil; experiment: Antihyperlipidemic activity, corn oil loaded mice; type: in vivo; conditions: plasma, 10 mg/kg, control drug, corn oil 1 g/kg
Description: Five-week-old ICR male mice (obtained from Central Lab. Animal Inc.) were bred in an animal facility where breeding conditions of temperature (20±1° C.), humidity (50±10%), light/dark cycle (12 hours), light intensity (150 to 300 Lux), and ventilation (10 to 20 times/hr) were maintained. Solid feed for laboratory animals (obtained from Cargill Agri Purina Inc.) was freely supplied to the mice, and city water was subjected to steam sterilization and then was freely fed to the mice as drinking water. After acclimation for one week, the […] Herba extract was orally administered to eight mice per group in a concentration of 100 mg/kg, and a saline was orally administered to the control group instead of the extract.

[3] = plasma, high-fat diet, 10 mg/kg/day, six weeks
[4] = positive control group, summary of Table 1

| SMILES | ALT (Alanine aminotransferase) [1, 3] [IU/L] | AST (Aspartate aminotransferase) [1, 3] [IU/L] | CHO (Cholesterol) [1, 3] [mg/dL] | GLU (Glucose) [1, 3] [mg/dL] | TG (Triglyceride) [1, 3] [mg/dL] | ALT and glucose levels [1, 4] | AST and cholesterol levels [1, 4] | triglyceride level [1, 4] | CHO (Cholesterol) [2] [mg/dL] | TG (Triglyceride) [2] [mg/dL] |
| --- | --- | --- | --- | --- | --- | --- | --- | --- | --- | --- |
| CC(C)CC(N(C)C)C1(c2ccc(Cl)cc2)CCC1 (stereo not shown) [Sibutramine] | 64 ± 15.1 | 172.33 ± 58.4 | 187.33 ± 15 | 182.66 ± 27.3 | 91.33 ± 17.0 | meaningfully reduced | not changed | rather increased |  |  |
| CCCCCCCCCCC[C@@H](C[C@@H]1OC(=O)[C@H]1CCCCCC)OC(=O)[C@H](CC(C)C)NC=O [Xenical] |  |  |  |  |  |  |  |  | 148.83 ± 8.26 | 311.17 ± 45.56 |

From patent US20100285156A1, “COMPOSITION FOR PREVENTING AND TREATING METABOLIC DISEASES COMPRISING THE EXTRACT OF LYSIMACHIAE FOENUM-GRAECI HERBA” (BRNSCIENCE CO., LTD, priority 2007, published 2010)
